How the values were obtained:
NA transporter = test: Inhibition of noradrenalin uptake in synaptosomes; type: biochemical
5-HT transporter = molecular target: T1, 5-HT transporter (Rattus norvegicus, UniProt P31652); test: Inhibition of 5-HT uptake in synaptosomes; type: biochemical; details: rat, 1 μM
T1 construct: from tissue; host or cells: rat brain synaptosomes (marrow/medulla and pons), P2 fraction

[1] = test system: batrachotoxin (BTX) binding site of the sodium channel; test: Affinity to the batrachotoxin (BTX) binding site of the sodium channel; details: rat cerebrocortex synaptosomes, [3H]-batrachotoxinin A20 α-benzoate 10 nM; test concentration not given

T1 sequence (P31652 whole entry): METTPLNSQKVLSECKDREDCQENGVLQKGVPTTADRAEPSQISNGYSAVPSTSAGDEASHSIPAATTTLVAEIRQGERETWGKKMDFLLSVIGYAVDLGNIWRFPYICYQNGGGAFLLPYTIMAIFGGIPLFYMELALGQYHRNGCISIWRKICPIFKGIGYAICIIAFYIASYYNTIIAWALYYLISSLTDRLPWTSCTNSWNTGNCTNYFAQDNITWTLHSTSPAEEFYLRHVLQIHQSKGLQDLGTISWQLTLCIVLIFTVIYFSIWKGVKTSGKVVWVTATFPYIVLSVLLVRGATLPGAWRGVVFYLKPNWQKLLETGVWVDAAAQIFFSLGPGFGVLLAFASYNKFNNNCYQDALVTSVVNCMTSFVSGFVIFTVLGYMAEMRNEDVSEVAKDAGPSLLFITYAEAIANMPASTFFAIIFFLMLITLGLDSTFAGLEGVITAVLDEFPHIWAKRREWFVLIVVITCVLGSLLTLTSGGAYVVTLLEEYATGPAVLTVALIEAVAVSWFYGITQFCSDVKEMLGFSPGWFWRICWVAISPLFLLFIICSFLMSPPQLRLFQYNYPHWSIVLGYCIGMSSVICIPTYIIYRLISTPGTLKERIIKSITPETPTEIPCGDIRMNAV

SMILES	Uptake (NA), rat, 10 μM, % inhibition (NA transporter)	Uptake_5-HT, rat, 1 μM, % inhibition (5-HT transporter)	BTX Inhibition [1]
O=C1NC2(CCN(S(=O)(=O)c3ccccc3F)CC2)NC1Cc1ccccc1 (stereo not shown) [Example 7, 3-Benzyl-8-(2-fluorobenzolsulfonyl)-1,4,8-triazaspiro[4,5]decan-2-one]	32%	54%	–
CSCCC1NC2(CCN(S(=O)(=O)c3ccc(C(C)=O)cc3)CC2)N(Cc2cccc(C#N)c2)C1=O (stereo not shown) [Example 10, 3-[8-(4-Acetylbenzolsulfonyl)-3-(2-methylsulfanylethyl)-2-oxo-1,4,8-triazaspiro[4,5]dec-1-ylmethyl]-benzonitrile]	39%	35%	–
COc1cc(C)c(S(=O)(=O)N2CCC3(CC2)NC(C(C)C)C(=O)N3Cc2ccccc2F)c(C)c1C (stereo not shown) [Example 11, 1-(2-Fluorobenzyl)-3-isopropyl-8-(4-methoxy-2,3,6-trimethylbenzolsulfonyl)-1,4,8-triazaspiro[4,5]decan-2-one]	37%	52%	–
C#CCN1C(=O)C(Cc2ccccc2)NC12CCN(S(=O)(=O)c1ccccc1C(F)(F)F)CC2 (stereo not shown) [Example 39, 3-Benzyl-1-prop-2-ynyl-8-(2-trifluoromethylbenzolsulfonyl)-1,4,8-triazaspiro[4,5]decan-2-one]	41%	38%	39
CCOC(=O)CN1C(=O)C(Cc2ccccc2)NC12CCN(S(=O)(=O)c1cc([N+](=O)[O-])ccc1C)CC2 (stereo not shown) [Example 46, Ethyl[3-benzyl-8-(2-methyl-5-nitrobenzolsulfonyl)-2-oxo-1,4,8-triazaspiro[4,5]dec-1-yl]-acetate]	33%	90%	30
CCOC(=O)CN1C(=O)C(Cc2ccccc2)NC12CCN(S(=O)(=O)c1ccccc1S(C)(=O)=O)CC2 (stereo not shown) [Example 47, Ethyl[3-benzyl-8-(2-methansulfonylbenzolsulfonyl)-2-oxo-1,4,8-triazaspiro[4,5]dec-1-yl]-acetate]	47%	71%	31
CCCCN1C(=O)C(CCSC)NC12CCN(C(=S)NCc1ccccc1)CC2 (stereo not shown) [Example 160, 1-Butyl-3-(2-methylsulfanylethyl)-2-oxo-1,4,8-triazaspiro[4,5]decan-8-thiocarboxylic acid benzylamide]	42%	–	63
CSCCC1NC2(CCN(C(=S)Nc3cccc(C)c3)CC2)N(Cc2ccccc2C#N)C1=O (stereo not shown) [Example 161, 1-(2-Cyanobenzyl)-3-(2-methylsulfanylethyl)-2-oxo-1,4,8-triazaspiro[4,5]decan-8-thiocarboxylic acid m-tolylamide]	33%	–	53
C#CCN1C(=O)C(CC(C)C)NC12CCN(C(=S)Nc1cccc(C(C)=O)c1)CC2 (stereo not shown) [Example 163, 3-Isobutyl-2-oxo-1-prop-2-ynyl-1,4,8-triazaspiro[4,5]decan-8-thiocarboxylic acid (3-acetylbenzol)amide]	34%	38%	–
COC(=O)c1ccc(CN2C(=O)C(C(C)C)NC23CCN(C(=S)Nc2c(F)c(F)c(F)c(F)c2F)CC3)cc1 (stereo not shown) [Example 164, Methyl 4-(3-isopropyl-2-oxo-8-pentafluorobenzolthiocarbamoyl-1,4,8-triazaspiro[4,5]dec-1-ylmethyl)benzoate]	58%	–	42
CSCCC1NC2(CCN(C(=S)NCC3CCCO3)CC2)N(Cc2ccc(F)cc2)C1=O (stereo not shown) [Example 168, 1-(4-Fluorobenzyl)-3-(2-methylsulfanylethyl)-2-oxo-1,4,8-triazaspiro[4,5]decan-8-thiocarboxylic acid (tetrahydrofuran-2-ylmethyl)amide]	35%	–	38
CC(C)CC1NC2(CCN(C(=S)Nc3cc(C(F)(F)F)cc(C(F)(F)F)c3)CC2)N(Cc2ccccc2C#N)C1=O (stereo not shown) [Example 169, 1-(2-Cyanobenzyl)-3-isobutyl-2-oxo-1,4,8-triazaspiro[4,5]decan-8-thiocarboxylic acid (3,5-bis-trifluoromethylbenzol)amide]	44%	–	91
CC(C)CC1NC2(CCN(C(=S)NCc3ccccc3)CC2)N(Cc2ccccc2C#N)C1=O (stereo not shown) [Example 170, 1-(2-Cyanobenzyl)-3-isobutyl-2-oxo-1,4,8-triazaspiro[4,5]decan-8-thiocarboxylic acid benzylamide]	46%	–	53
CSCCC1NC2(CCN(C(=S)Nc3ccc(Cl)cc3)CC2)N(Cc2cccc(C#N)c2)C1=O (stereo not shown) [Example 172, 1-(3-Cyanobenzyl)-3-(2-methylsulfanylethyl)-2-oxo-1,4,8-triazaspiro[4,5]decan-8-thiocarboxylic acid (4-chlorobenzol)amide]	47%	–	59
CCCCN1C(=O)C(CCSC)NC12CCN(C(=S)Nc1c(F)c(F)c(F)c(F)c1F)CC2 (stereo not shown) [Example 173, 1-Butyl-3-(2-methylsulfanylethyl)-2-oxo-1,4,8-triazaspiro[4,5]decan-8-thiocarboxylic acid pentafluorobenzolamide-amide]	45%	–	40
CN1C(=O)C(Cc2ccccc2)NC12CCN(C(=S)NCc1ccc(Cl)cc1)CC2 (stereo not shown) [Example 175, 3-Benzyl-1-methyl-2-oxo-1,4,8-triazaspiro[4,5]decan-8-thiocarboxylic acid 4-chlorobenzylamide]	32%	–	63
CSCCC1NC2(CCN(C(=S)NC(C)c3ccccc3)CC2)N(Cc2cccc(C#N)c2)C1=O (stereo not shown) [Example 181, 1-(3-Cyanobenzyl)-3-(2-methylsulfanylethyl)-2-oxo-1,4,8-triazaspiro[4,5]decan-8-thiocarboxylic acid (1-benzol-ethyl)amide]	40%	–	57
COc1ccccc1NC(=S)N1CCC2(CC1)NC(CCSC)C(=O)N2Cc1ccccc1C#N (stereo not shown) [Example 183, 1-(2-Cyanobenzyl)-3-(2-methylsulfanylethyl)-2-oxo-1,4,8-triazaspiro[4,5]decan-8-thiocarboxylic acid (2-methoxy-benzol)amide]	29%	–	37
COc1ccccc1NC(=S)N1CCC2(CC1)NC(CCSC)C(=O)N2Cc1cccc(C#N)c1 (stereo not shown) [Example 184, 1-(3-Cyanobenzyl)-3-(2-methylsulfanylethyl)-2-oxo-1,4,8-triazaspiro[4,5]decan-8-thiocarboxylic acid (2-methoxy-benzol)amide]	32%	–	36
CSCCC1NC2(CCN(C(=S)NCc3ccc(Cl)cc3)CC2)N(Cc2ccccc2C#N)C1=O (stereo not shown) [Example 193, 1-(2-Cyanobenzyl)-3-(2-methylsulfanylethyl)-2-oxo-1,4,8-triazaspiro[4,5]decan-8-thiocarboxylic acid 4-chlorobenzylamide]	32%	–	72
C#CCN1C(=O)C(CC(C)C)NC12CCN(C(=S)Nc1cc(Cl)cc(Cl)c1)CC2 (stereo not shown) [Example 195, 3-Isobutyl-2-oxo-1-prop-2-ynyl-1,4,8-triazaspiro[4,5]decan-8-thiocarboxylic acid (3,5-dichlorobenzol)amide]	30%	–	77
CCOC(=O)CN1C(=O)C(CCSC)NC12CCN(C(=O)Nc1ccccc1)CC2 (stereo not shown) [Example 203, Ethyl[3-(2-methylsulfanylethyl)-2-oxo-8-benzolcarbamoyl-1,4,8-triazaspiro[4,5]dec-1-yl]-acetate]	40%	–	32
CCCCN1C(=O)C(C(C)C)NC12CCN(C(=O)Nc1cc(OC)ccc1OC)CC2 (stereo not shown) [Example 216, 1-Butyl-3-isopropyl-2-oxo-1,4,8-triazaspiro[4,5]decan-8-carboxylic acid (2,5-dimethoxy-benzol)amide]	30%	46%	–
CC(C)CC1NC2(CCN(C(=O)NCc3ccc(Cl)c(Cl)c3)CC2)N(Cc2ccccc2C#N)C1=O (stereo not shown) [Example 217, 1-(2-Cyanobenzyl)-3-isobutyl-2-oxo-1,4,8-triazaspiro[4,5]decan-8-carboxylic acid 3,4-dichlorobenzylamide]	39%	–	78
CSCCC1NC2(CCN(C(=O)Nc3ccc(OC(F)(F)F)cc3)CC2)N(C)C1=O (stereo not shown) [Example 222, 1-Methyl-3-(2-methylsulfanylethyl)-2-oxo-1,4,8-triazaspiro[4,5]decan-8-carboxylic acid (4-trifluoromethoxy-benzol)amide]	30%	–	48
CSCCC1NC2(CCN(C(=O)NCc3ccc(Cl)c(Cl)c3)CC2)N(Cc2ccccc2C#N)C1=O (stereo not shown) [Example 229, 1-(2-Cyanobenzyl)-3-(2-methylsulfanylethyl)-2-oxo-1,4,8-triazaspiro[4,5]decan-8-carboxylic acid 3,4-dichlorobenzylamide]	40%	–	69
